Reference: patent US12576135B2, “Compositions and methods for anti-TnMUC1 gold CAR t-cells” (Chimera Bioengineering, Inc., priority 2021, dated 2026)

Experiments:
PI3K = settings: cited from earlier work
mTORC1 = mTORC1 (Homo sapiens, UniProt P42345); settings: cited from earlier work
primary T-cells = assay: Rapamycin inhibition of Gold controlled nano-luciferase in anti-DLL3 CAR primary T-cells mixed with SHP-77 cells; assay type: cell-based; settings: Concurrent Rx and Delay Rx; 24, 48, 72 hours
Text: A bicistronic vector with an anti-DLL3-CAR and nano-luceiferase under the control of an IFNg Gold element is made using the methods and materials described above. This bicistronic vector is transduced into primary T-cells, and transduced T-cells are obtained. When the transduced T-cells are mixed with SHP-77 cells that display the DLL3 antigen, the primary T-cells are activated and nano-luciferase is expressed.
The ability of rapamycin to inhibit the expression of nano-luciferase following activation of the primary T-cells was tested. Primary T-cells transduced with the bicistronic vector encoding the anti-DLL3 CAR and nano-luciferase were mixed with SHP-77 cells and then three treatment regimens were used. No rapamycin (NoRx), rapamycin added concurrently with the SHP-77 cells (Concurrent Rx), or rapamycin added 24 hours after SHP-77 cells was added (Delay Rx). New media was mixed with the cells every 24 hours. If the cells had received rapamycin in the media in the earlier time period, rapamycin was included with the media at subsequent media changes.
FIG. 22 normalizes the nano-luciferase activity to that of the NoRx sample. Levels of nano-luciferase were measured at 24 hours, 48 hours and 72 hours post mixing with SHP-77 cells.

SMILES | IC50 (PI3K) | IC50 (mTORC1) | expression of nano-luciferase normalized to NoRx (primary T-cells)
COc1ccc(-c2ccc3c(N4CCOC[C@@H]4C)nc(N4CCOC[C@@H]4C)nc3n2)cc1CO [AZD8055] | 3590 nM | – | –
CO[C@H]1C[C@@H]2CC[C@@H](C)[C@@](O)(O2)C(=O)C(=O)N2CCCC[C@H]2C(=O)O[C@H]([C@H](C)C[C@@H]2CC[C@@H](OCCO)[C@H](OC)C2)CC(=O)[C@H](C)/C=C(\C)[C@@H](O)[C@@H](OC)C(=O)[C@H](C)C[C@H](C)/C=C/C=C/C=C/1C [Everolimus] | – | 1.8 to 2.6 nM | –
COc1ccc(-c2ccc3c(N4CCOCC4)nc(N4C[C@@H](C)O[C@@H](C)C4)nc3n2)cc1CO [KU-0063794] | > 10000 nM | – | –
CO[C@H]1C[C@@H]2CC[C@@H](C)[C@@](O)(O2)C(=O)C(=O)N2CCCC[C@H]2C(=O)O[C@H]([C@H](C)C[C@@H]2CC[C@@H](O)[C@H](OC)C2)CC(=O)[C@H](C)/C=C(\C)[C@@H](O)[C@@H](OC)C(=O)[C@H](C)C[C@H](C)/C=C/C=C/C=C/1C [Rapamycin/sirolimus] | – | – | reduced expression of nano-luciferase
CCC(=O)N1CCN(c2ccc(-n3c(=O)ccc4cnc5ccc(-c6cnc7ccccc7c6)cc5c43)cc2C(F)(F)F)CC1 [Torin 1] | 250 nM | – | –
Nc1ccc(-c2ccc3ncc4ccc(=O)n(-c5cccc(C(F)(F)F)c5)c4c3c2)cn1 [Torin 2] | 4.68 nM | – | –
CNC(=O)Nc1ccc(-c2nc(N3CC4CCC(C3)O4)c3cnn(C4CCC5(CC4)OCCO5)c3n2)cc1 [WYE-125132] | 1180 nM | 0.19 nM | –
